In US20240024291A1, “Uses of Dihydroorotate Dehydrogenase Inhibitors” (University of Maryland, Baltimore, priority 2022, published 2024):

Assays:
Type in all cases: cell-based, human
[1] = tested on: 08-387 glioblastoma neurosphere line; assay: CellTiter-Glo in vitro proliferation assay; conditions: for IC50: Homo sapiens
Method: (§1) A Biospherix X3, hypoxic incubation system, was maintained at 37° C., 1% 02, 5% CO2, and 94% N2 (Biospherix, Ltd—Parish, NY) to conduct in vitro hypoxic experiments. Cells were plated, then incubated in normoxia overnight before transferring the culture dishes to hypoxia for the duration indicated in the main text.
(§2) […] Cell Titer-Glo® Luminescent Cell Viability Assay (Promega, Madison, WI, USA) was performed 72 hours after treatment. Luminescence was determined using a Cytation 5 reader and Gen5 software package (BioTek, Winooski, VT, USA).
(§3) The compound's efficacy was examined against a collection of genetically diverse patient-derived GSC lines in vitro. The IC50 profiles of compound 1 in the seven GSC lines tested were established using the CellTiter-Glo® reagent and calculated with GraphPad software.

[2] = tested on: 913 glioblastoma neurosphere line; assay: CellTiter-Glo in vitro proliferation assay
Method: as §1, §2, §3

[3] = tested on: 08-387 glioblastoma neurosphere line; assay: gH2AX foci immunofluorescence (DNA damage); conditions: IC50 dose
Method: (§4) The 913, 3691, 08-387, and 1079 glioblastoma neurosphere-derived cells (1×10^4) were treated with DMSO (control) or IC50 concentration of compound 1 and cultured in either normoxia or hypoxia for 48 hours. Cells were spun with a Milles Scientific Cyto-Tek Model 4325 cytocentrifuge slide centrifuge onto Superfrost slides (VWR-48311-703) at 1500 rpm for 5 minutes. Slides were rinsed briefly with Hanks Balanced Salt Solution (HBSS), fixed in 4% paraformaldehyde in PBS, and rinsed with HBSS twice to remove any residual fixative. Cells were permeabilized with PBS containing 0.1% Triton-X100 (PBST) for 15 minutes, then blocked for 1 hour with PBST with 5% BSA. The slides were incubated overnight at 4° C. with Phospho-H2AX antibody (see above), diluted 1:250 in PBST containing 5% BSA. Slides were rinsed three times with HBSS, then incubated for one hour at room temperature with donkey anti-mouse, Alexa488-conjugated, secondary antibody diluted 1:500 in PBST containing 5% BSA (see above). Cell nuclei were counterstained with DAPI (150 nM), and the slides were cover-slipped with Prolong antifade mounting media (Molecular Probes #P36961). Using a 40X objective, at least ten random high-power fields, per condition, were captured with a Nikon W-1 Spinning Disk confocal microscope through the University of Maryland Baltimore CIBR confocal facility. The number of yH2AX-positive foci per cell was counted using ImageJ (unige.ch/medecine/bioimaging/files/3714/1208/5964/CellCounting.pdf). Individual cells with ten or more foci were considered positive for significant DNA damage. At least 300 cells were analyzed in each sample.
(§5) Reduced de novo pyrimidine synthesis mediated by MCT4-depletion promoted an accumulation of DNA damage (29). To test and quantify the magnitude of compound 1 effect on DNA damage, the four compound 1 responsive GBM neurosphere lines 913, 3691, 08-387, and 1079 were cultured in normoxia (21% oxygen) and hypoxia (1% oxygen) with a model-specific IC50 dose of compound 1 for 48 hours followed by immunocytochemical analysis of the DNA-damage marker g-H2AX. Table 1 is a summary of IC50 (nM or mM) values established for the seven glioblastoma neurosphere lines

[4] = tested on: 1079 glioblastoma neurosphere line; assay: gH2AX foci immunofluorescence (DNA damage); conditions: IC50 dose
Method: as §4, §5

[5] = tested on: 913 glioblastoma neurosphere line; assay: gH2AX foci immunofluorescence (DNA damage); conditions: IC50 dose
Method: as §4, §5

[6] = tested on: 08-387 neurosphere line; assay: Western blot for cleaved PARP1; conditions: 10 nM
Method: (§6) Western Blots were performed using 25 µg of protein per sample loaded onto NuPAGE® Novex® 4-12% Bis-Tris protein gels and transferred onto nitrocellulose membranes that were then blocked with 5% BSA in PBS and 0.1% Tween (PBST). Primary antibody incubation was performed in 5% BSA in PBST at 4° C. overnight, and HRP-labeled secondary antibody incubation (1:5000) was performed for one hour at room temperature in 5% BSA in PBST.
(§7) Antibodies used for western blotting were acquired from the following sources: Cleaved PARP (Asp214) (D64E10) XP® Rabbit mAb, Cell Signaling Technology Cat#5625, RRID:AB_10699459, 1:1000 for Western blots. Phospho-H2AX, Millipore Cat#RRID:AB_2755003, 1:1000 for Western blots, and 1:250 for immunofluorescence imaging. p-Tubulin, Millipore Cat #MAB5564, RRID:AB 11212768, 1:10,000 for Western blots. p44/42 MAPK (Erk1/2) (137F5) Rabbit mAb (Cell Signaling Technology Cat #4695, RRID:AB_390779) 1:1000 for Western blots; Phospho-p44/42 MAPK (Erk1/2) (Thr202/Tyr204) (Cell Signaling Technology Cat #9101, RRID:AB_331646) 1:1000 for Western blots; Akt Antibody (Cell Signaling Technology Cat #9272, RRID:AB_329827) 1:1000 for Western blots; Phospho-Akt (Ser473) Antibody (Cell Signaling Technology Cat #9271, RRID:AB 329825) 1:1000 for Western blots.
(§8) Poly(ADP-ribose) polymerase 1 (PARP1) is a nuclear protein that is activated by binding to DNA lesions and catalyzes the poly(ADP-ribosyl)ation of various nuclear proteins, including PARP1 itself, to recruit the DNA repair machinery to DNA lesions (53, 54. When excessive DNA damage occurs, PARP1 is cleaved to generate an 89 kDa fragment shown to serve as a cytoplasmic PAR carrier to induce AIF-mediated apoptosis (55). Given the profound induction of DNA damage in compound 1-treated GBM neurospheres, the prevalence of the 89 kDa PARP1 fragment in control and 10 nM compound 1-treated cells was measured. Strikingly, a 9.7- and 56-fold increase in the level of cleaved PARP1 was found in 913 and 08-387 neurosphere lines, respectively, when cultured in normoxia. Similarly, a 9.9- and 71-fold increase was documented in the level of cleaved PARP1 in 913 and 08-387 neurosphere lines cultured in hypoxia (FIG. 6).

[7] = tested on: 913 neurosphere line; assay: Western blot for cleaved PARP1; conditions: 10 nM
Method: as §6, §7, §8

CCn1c(CO)nn(-c2cc(O[C@@H](C)C(F)(F)F)c(C(=O)Nc3c(F)cccc3Cl)cc2F)c1=O [Compound 1, N-(2-chloro-6-fluorophenyl)-4-[4-ethyl-4,5-dihydro-3-(hydroxymethyl)-5-oxo-1H-1,2,4-triazol-1-yl]-5-fluoro-2-[(1S)-2,2,2-trifluoro-1-methylethoxy]-benzamide]
effect of uridine on growth inhibition ([1]; 08-387, with 100 mM uridine, all concentrations tested): entirely rescued | IC50 ([1]; 08-387, uridine rescue experiment, compound 1 alone, normoxia and hypoxia): 1 to 10 nM | IC50 ([1]; 72 h, 08-387, hypoxia): 11.4 nM | IC50 ([1]; 72 h, 08-387, normoxia): 4.7 nM | effect of uridine on growth inhibition ([2]; 913, with 100 mM uridine, all concentrations tested): entirely rescued | IC50 ([2]; Homo sapiens, 913, uridine rescue experiment, compound 1 alone, normoxia and hypoxia): 1 to 10 nM | IC50 ([2]; Homo sapiens, 72 h, 913, hypoxia (1% oxygen), 72 hours): 6.7 nM | IC50 ([2]; Homo sapiens, 72 h, 913, normoxia (21% oxygen), 72 hours): 15.3 nM | nuclei with multiple gH2AX-positive foci ([3]; 08-387, hypoxia, 48 hours (control 13.6%)): 32% | nuclei with multiple gH2AX-positive foci ([3]; 08-387, normoxia, 48 hours (control 11.6%)): 30% | g-H2AX positivity ([4]; 1079, hypoxia, 48 hours (control 16.2%)): 38.4% | g-H2AX positivity ([4]; 1079, normoxia, 48 hours (control 14.8%)): 32.4% | nuclei with multiple gH2AX-positive foci ([5]; 913, hypoxia, 48 hours (control 2.3%)): 23% | nuclei with multiple gH2AX-positive foci ([5]; 913, normoxia, 48 hours (control 11%)): 89% | increase in the level of cleaved PARP1 ([6]; 08-387, hypoxia): 71 fold | increase in the level of cleaved PARP1 ([6]; 08-387, normoxia): 56 fold | increase in the level of cleaved PARP1 ([7]; 913, hypoxia): 9.9 fold | increase in the level of cleaved PARP1 ([7]; 913, normoxia): 9.7 fold
